The values that follow are results of earlier work, collected in patent publication US11575141B2 (Robert Bosch GmbH, priority 2020, dated 2023).

Read-outs that look alike come from different tables or passages of the source.

`NP(=O)(O)O` [Example 10, Phosphoramidate]: the “pKa values (pKa source in footnotes)” value is reported as around 3.4 (first pKa value listed) and around 8.3 (second pKa value listed).

For the molecule `O=P(O)(O)P(=O)(O)O` [Example 2, Hypophosphoric acid], the “pKa values (pKa source in footnotes)” value is listed as 2.2 (first pKa value listed), 10.0 (fourth pKa value listed), 2.8 (second pKa value listed) and 7.3 (third pKa value listed).

On to `O=[PH](O)O` [Example 14, Phosphonic acid], for which the “pKa values (pKa source in footnotes)” value is, setting by setting: (first pKa value listed) 1.1-2.3; (second pKa value listed) 5.3-7.2.

In the case of `O=P(O)(O)OP(=O)(O)OP(=O)(O)O` [Example 5, Triphosphoric acid], the “pKa values (pKa source in footnotes)” value (first pKa value listed) is 0.89 ^3.
